Test system: 857933-349-R-J2-PDC complex spheroid viability
Test: Anticancer human tumor 857933-349-R-J2-PDC patient-derived colon adenocarcinoma cell line growth inhibition [POLQ]
Settings: for IC50: curve of first compound; for viability, T/C: stronger effect = lower value; active = viability on the fitted dose curve at most 10% of control; inactive = the rest
How it was run: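 PDC + HUVEC + MSC complex spheroids; POLQ inhibitors ± partner drugs; top conc. at/near clinical Cmax, else 10 microM (SN-38 1 microM), half-log dilutions; 37 degrees C, 5% CO2.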
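Note: spheroids exposed to compounds for seven days before readout.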

C#Cc1c(F)ccc2cc(O)cc(-c3ncc4c(N5CC6CCC(C5)N6)nc(OCC56CCCN5CC(F)C6)nc4c3F)c12 (configuration not stated) + Nc1ccc(C#CCN(C(=O)Cc2ncc(C(F)(F)F)cc2C(F)(F)F)c2ccc(F)cc2)nn1
inactive: viability, T/C (second compound 0.0316 µM, first compound 0.0316 µM) 84.4% | viability, T/C (second compound 0.0316 µM, first compound 0.1 µM) 99.5% | viability, T/C (second compound 0.0316 µM, first compound 0.316 µM) 82.7% | viability, T/C (second compound 0.0316 µM, first compound 1 µM) 80.8% | viability, T/C (second compound 0.0316 µM, first compound 3.16 µM) 78.2% | viability, T/C (second compound 0.0316 µM, first compound 10 µM) 73.1% | viability, T/C (second compound 0.1 µM, first compound 0.0316 µM) 101% | viability, T/C (second compound 0.1 µM, first compound 0.1 µM) 101% | viability, T/C (second compound 0.1 µM, first compound 0.316 µM) 86.8% | viability, T/C (second compound 0.1 µM, first compound 1 µM) 87.1% | viability, T/C (second compound 0.1 µM, first compound 3.16 µM) 84% | viability, T/C (second compound 0.1 µM, first compound 10 µM) 80.7% | viability, T/C (second compound 0.316 µM, first compound 0.0316 µM) 95.3% | viability, T/C (second compound 0.316 µM, first compound 0.1 µM) 92.4% | viability, T/C (second compound 0.316 µM, first compound 0.316 µM) 79% | viability, T/C (second compound 0.316 µM, first compound 1 µM) 73% | viability, T/C (second compound 0.316 µM, first compound 3.16 µM) 93.8% | viability, T/C (second compound 0.316 µM, first compound 10 µM) 75.5% | viability, T/C (second compound 1 µM, first compound 0.0316 µM) 104% | viability, T/C (second compound 1 µM, first compound 0.1 µM) 100% | viability, T/C (second compound 1 µM, first compound 0.316 µM) 79.5% | viability, T/C (second compound 1 µM, first compound 1 µM) 79.7% | viability, T/C (second compound 1 µM, first compound 3.16 µM) 86.8% | viability, T/C (second compound 1 µM, first compound 10 µM) 70.6% | viability, T/C (second compound 3.16 µM, first compound 0.0316 µM) 101% | viability, T/C (second compound 3.16 µM, first compound 0.1 µM) 86.8% | viability, T/C (second compound 3.16 µM, first compound 0.316 µM) 82.7% | viability, T/C (second compound 3.16 µM, first compound 1 µM) 76.7% | viability, T/C (second compound 3.16 µM, first compound 3.16 µM) 107% | viability, T/C (second compound 3.16 µM, first compound 10 µM) 68.6% | viability, T/C (second compound 10 µM, first compound 0.0316 µM) 87% | viability, T/C (second compound 10 µM, first compound 0.1 µM) 76.8% | viability, T/C (second compound 10 µM, first compound 0.316 µM) 87% | viability, T/C (second compound 10 µM, first compound 1 µM) 73.9% | viability, T/C (second compound 10 µM, first compound 3.16 µM) 76.3% | viability, T/C (second compound 10 µM, first compound 10 µM) 69%
> 10 µM: IC50 (second compound 0.0316 µM) | IC50 (second compound 0.1 µM) | IC50 (second compound 0.316 µM) | IC50 (second compound 1 µM) | IC50 (second compound 3.16 µM) | IC50 (second compound 10 µM)

Reference: PubChem BioAssay AID1963836 (Molecular Pharmacology Branch, DTP, NCI, 2024)
